Measurements from EP3002287B1, “Thiochromeno[2,3-c]quinolin-12-one derivatives and their use as topoisomerase inhibitors” (National Defense Medical Center, priority 2014, dated 2016).

How the values were obtained:
[1] = test system: CCRF-CEM; assay: NCI in vitro 60-cell drug screen (SRB assay); assay type: cell-based; conditions: CCRF-CEM (Leukemia); 10^-5 molar concentration; 48 hours
[2] = test system: HL-60(TB); assay: NCI in vitro 60-cell drug screen (SRB assay); assay type: cell-based; conditions: HL-60(TB) (Leukemia); 10^-5 molar concentration; 48 hours
[3] = test system: K-562; assay: NCI in vitro 60-cell drug screen (SRB assay); assay type: cell-based; conditions: K-562 (Leukemia); 10^-5 molar concentration; 48 hours
[4] = test system: A549/ATCC; assay: NCI in vitro 60-cell drug screen (SRB assay); assay type: cell-based; conditions: A549/ATCC (Non-small cell lung cancer); 10^-5 molar concentration; 48 hours
[5] = test system: HOP-62; assay: NCI in vitro 60-cell drug screen (SRB assay); assay type: cell-based; conditions: HOP-62 (Non-small cell lung cancer); 10^-5 molar concentration; 48 hours
[6] = test system: NCI-H226; assay: NCI in vitro 60-cell drug screen (SRB assay); assay type: cell-based; conditions: NCI-H226 (Non-small cell lung cancer); 10^-5 molar concentration; 48 hours
[7] = test system: NCI-H23; assay: NCI in vitro 60-cell drug screen (SRB assay); assay type: cell-based; conditions: NCI-H23 (Non-small cell lung cancer); 10^-5 molar concentration; 48 hours
[8] = test system: NCI-H522; assay: NCI in vitro 60-cell drug screen (SRB assay); assay type: cell-based; conditions: NCI-H522 (Non-small cell lung cancer); 10^-5 molar concentration; 48 hours
[9] = test system: COLO 205; assay: NCI in vitro 60-cell drug screen (SRB assay); assay type: cell-based; conditions: COLO 205 (Colon cancer); 10^-5 molar concentration; 48 hours
[10] = test system: HCT-116; assay: NCI in vitro 60-cell drug screen (SRB assay); assay type: cell-based; conditions: HCT-116 (Colon cancer); 10^-5 molar concentration; 48 hours
[11] = test system: HCT-15; assay: NCI in vitro 60-cell drug screen (SRB assay); assay type: cell-based; conditions: HCT-15 (Colon cancer); 10^-5 molar concentration; 48 hours
[12] = test system: SF-268; assay: NCI in vitro 60-cell drug screen (SRB assay); assay type: cell-based; conditions: SF-268 (CNS cancer); 10^-5 molar concentration; 48 hours
[13] = test system: SF-295; assay: NCI in vitro 60-cell drug screen (SRB assay); assay type: cell-based; conditions: SF-295 (CNS cancer); 10^-5 molar concentration; 48 hours
[14] = test system: SF-539; assay: NCI in vitro 60-cell drug screen (SRB assay); assay type: cell-based; conditions: SF-539 (CNS cancer); 10^-5 molar concentration; 48 hours
[15] = test system: SNB-75; assay: NCI in vitro 60-cell drug screen (SRB assay); assay type: cell-based; conditions: SNB-75 (CNS cancer); 10^-5 molar concentration; 48 hours
[16] = test system: LOX IMVI; assay: NCI in vitro 60-cell drug screen (SRB assay); assay type: cell-based; conditions: LOX IMVI (Melanoma); 10^-5 molar concentration; 48 hours
[17] = test system: MDA-MB-435; assay: NCI in vitro 60-cell drug screen (SRB assay); assay type: cell-based; conditions: MDA-MB-435 (Melanoma); 10^-5 molar concentration; 48 hours
[18] = test system: SK-MEL-5; assay: NCI in vitro 60-cell drug screen (SRB assay); assay type: cell-based; conditions: SK-MEL-5 (Melanoma); 10^-5 molar concentration; 48 hours
[19] = test system: UACC-257; assay: NCI in vitro 60-cell drug screen (SRB assay); assay type: cell-based; conditions: UACC-257 (Melanoma); 10^-5 molar concentration; 48 hours
[20] = test system: UACC-62; assay: NCI in vitro 60-cell drug screen (SRB assay); assay type: cell-based; conditions: UACC-62 (Melanoma); 10^-5 molar concentration; 48 hours
[21] = test system: IGROV1; assay: NCI in vitro 60-cell drug screen (SRB assay); assay type: cell-based; conditions: IGROV1 (Ovarian cancer); 10^-5 molar concentration; 48 hours
[22] = test system: OVCAR-3; assay: NCI in vitro 60-cell drug screen (SRB assay); assay type: cell-based; conditions: OVCAR-3 (Ovarian cancer); 10^-5 molar concentration; 48 hours
[23] = test system: OVCAR-5; assay: NCI in vitro 60-cell drug screen (SRB assay); assay type: cell-based; conditions: OVCAR-5 (Ovarian cancer); 10^-5 molar concentration; 48 hours
[24] = test system: NCI/ADR-RES; assay: NCI in vitro 60-cell drug screen (SRB assay); assay type: cell-based; conditions: NCI/ADR-RES (Ovarian cancer); 10^-5 molar concentration; 48 hours
[25] = test system: SK-OV-3; assay: NCI in vitro 60-cell drug screen (SRB assay); assay type: cell-based; conditions: SK-OV-3 (Ovarian cancer); 10^-5 molar concentration; 48 hours
[26] = test system: A498; assay: NCI in vitro 60-cell drug screen (SRB assay); assay type: cell-based; conditions: A498 (Renal cancer); 10^-5 molar concentration; 48 hours
[27] = test system: SN12C; assay: NCI in vitro 60-cell drug screen (SRB assay); assay type: cell-based; conditions: SN12C (Renal cancer); 10^-5 molar concentration; 48 hours
[28] = test system: TK-10; assay: NCI in vitro 60-cell drug screen (SRB assay); assay type: cell-based; conditions: TK-10 (Renal cancer); 10^-5 molar concentration; 48 hours
[29] = test system: UO-31; assay: NCI in vitro 60-cell drug screen (SRB assay); assay type: cell-based; conditions: UO-31 (Renal cancer); 10^-5 molar concentration; 48 hours
[30] = test system: PC-3; assay: NCI in vitro 60-cell drug screen (SRB assay); assay type: cell-based; conditions: PC-3 (Prostate cancer); 10^-5 molar concentration; 48 hours
[31] = test system: DU-145; assay: NCI in vitro 60-cell drug screen (SRB assay); assay type: cell-based; conditions: DU-145 (Prostate cancer); 10^-5 molar concentration; 48 hours
[32] = test system: MCF7; assay: NCI in vitro 60-cell drug screen (SRB assay); assay type: cell-based; conditions: MCF7 (Breast cancer); 10^-5 molar concentration; 48 hours
[33] = test system: HS 578T; assay: NCI in vitro 60-cell drug screen (SRB assay); assay type: cell-based; conditions: HS 578T (Breast cancer); 10^-5 molar concentration; 48 hours
[34] = test system: BT-549; assay: NCI in vitro 60-cell drug screen (SRB assay); assay type: cell-based; conditions: BT-549 (Breast cancer); 10^-5 molar concentration; 48 hours
[35] = test system: T-47D; assay: NCI in vitro 60-cell drug screen (SRB assay); assay type: cell-based; conditions: T-47D (Breast cancer); 10^-5 molar concentration; 48 hours
[36] = test system: 60 cell lines; assay: NCI in vitro 60-cell drug screen (SRB assay), whole panel statistics; conditions: mean over the cell panel; 10^-5 molar concentration; 48 hours

SMILES | Growth percent [1] [%] | Growth percent [2] [%] | Growth percent [3] [%] | Growth percent [4] [%] | Growth percent [5] [%] | Growth percent [6] [%] | Growth percent [7] [%] | Growth percent [8] [%] | Growth percent [9] [%] | Growth percent [10] [%] | Growth percent [11] [%] | Growth percent [12] [%] | Growth percent [13] [%] | Growth percent [14] [%] | Growth percent [15] [%] | Growth percent [16] [%] | Growth percent [17] [%] | Growth percent [18] [%] | Growth percent [19] [%] | Growth percent [20] [%] | further results
O=c1c2cc(Cl)ccc2sc2c(O)nc3ccccc3c12 [Compound 4, 10-Chloro-6-hydroxy-12H-thiochromeno[2,3-c]quinolin-12-one] | 107.78 | 109.82 | 107.08 | 95.25 | 90.80 | 99.58 | 88.96 | 86.60 | 93.69 | 86.20 | 98.11 | 95.26 | 99.93 | 93.21 | 66.63 | 92.07 | 103.18 | 100.69 | 108.36 | 105.86 | Growth percent [21]: 78.35%; Growth percent [22]: 106.37%; Growth percent [23]: 111.17%; Growth percent [24]: 96.84%; Growth percent [25]: 94.40%; Growth percent [26]: 107.74%; Growth percent [27]: 101.14%; Growth percent [28]: 113.26%; Growth percent [29]: 76.44%; Growth percent [30]: 91.90%; Growth percent [31]: 99.80%; Growth percent [32]: 69.90%; Growth percent [33]: 113.28%; Growth percent [34]: 85.17%; Growth percent [35]: 77.89%; Growth percent, Mean [36]: 97.17%
COc1nc2ccccc2c2c(=O)c3cc(Cl)ccc3sc12 [Compound 5, 10-Chloro-6-methoxy-12H-thiochromeno[2,3-c]quinolin-12-one] | 106.56 | 89.47 | 95.83 | 100.46 | 69.64 | 98.57 | 80.14 | 92.71 | 97.94 | 89.48 | 107.99 | 94.12 | 86.35 | 86.13 | 52.28 | 91.21 | 103.83 | 99.74 | 108.09 | 96.15 | Growth percent [21]: 71.44%; Growth percent [22]: 96.60%; Growth percent [23]: 106.70%; Growth percent [24]: 96.10%; Growth percent [25]: 58.94%; Growth percent [26]: 96.29%; Growth percent [27]: 98.74%; Growth percent [28]: 113.30%; Growth percent [29]: 74.69%; Growth percent [30]: 92.46%; Growth percent [31]: 104.27%; Growth percent [32]: 65.39%; Growth percent [33]: 66.51%; Growth percent [34]: 94.85%; Growth percent [35]: 68.46%; Growth percent, Mean [36]: 92.10%
CN(C)c1nc2ccccc2c2c(=O)c3cc(Cl)ccc3sc12 [Compound 6, 10-Chloro-6-dimethylamino-12H-thiochromeno[2,3-c]quinolin-12-one] | 99.42 | 107.16 | 99.71 | 94.16 | 43.62 | 96.20 | 77.00 | 70.42 | 89.67 | 74.26 | 89.27 | 77.86 | 48.82 | 72.72 | 15.29 | 86.53 | 107.18 | 97.92 | 109.22 | 87.80 | Growth percent [21]: 68.16%; Growth percent [22]: 79.65%; Growth percent [23]: 98.05%; Growth percent [24]: 87.86%; Growth percent [25]: 41.57%; Growth percent [26]: 97.06%; Growth percent [27]: 99.49%; Growth percent [28]: 64.75%; Growth percent [29]: 73.81%; Growth percent [30]: 81.25%; Growth percent [31]: 92.93%; Growth percent [32]: 22.19%; Growth percent [33]: 60.38%; Growth percent [34]: 92.96%; Growth percent [35]: 37.66%; Growth percent, Mean [36]: 80.59%
